Experimental findings from paper PMC11623267, “Inhibitors of malaria parasite cyclic nucleotide phosphodiesterases block asexual blood-stage development and mosquito transmission” (Science Advances, 2024) are described below.

Like-named read-outs stand apart in the source and are kept apart here.

Holding throughout (type): cell-based, Plasmodium falciparum
In assay [1] the test system is P. falciparum (clone 3D7). In words: Parasite reduction ratio (PRR) assay. As for the experimental part:
The in vitro killing profile of compounds was determined by monitoring the ability of parasites to recover following treatment with a compound of interest using a previously reported approach ([50]), which allowed calculation of the PRR ([51]). […] To quantify the number of viable parasites following treatment, four independent sets of threefold serial dilutions were performed on each sample, which were assayed for the presence or absence of parasites after 28 days using the LDH assay, and the number of viable parasites was determined by the number of wells showing growth. PRR and PCT99.9% were calculated as previously reported ([50]).

Assay [2] has as its system P. falciparum Dd2-B2 lines selected under drug pressure. In words: 72-hour flow cytometry EC50 assay, lines selected under drug pressure. As to conditions: for EC50: Plasmodium falciparum. As for the experimental part: Three examples of an additional compound series developed independently [NPD-2958, NPD-3518 ([31]), and NPD-3738; fig.
(§1) Stocks of SAL-0010003 (5-benzyl), SAL-0010355 (5-aryl), and SAL-0010419 (2-alkyl) were made at 10 and 1 mM in DMSO. Aliquots in use were stored at −20°C, and long-term storage was at −80°C. All in vitro studies were done such that the final DMSO concentration was <0.5%. P. falciparum ABS parasites were cultured at 3% hematocrit in human O+ RBCs in RPMI 1640 medium, supplemented with 25 mM Hepes, 50 mg L-hypoxanthine, 2 mM L-glutamine, 0.225% sodium bicarbonate, 0.5% (w/v) AlbuMAX II (Invitrogen) and gentamycin (10 μg/ml), in modular incubator chambers (Billups-Rothenberg) at 5% O2, 5% CO2, and 90% N2 at 37°C. Dd2-B2 (obtained from T. Wellems, National Institute of Allergy and Infectious Diseases, National Institutes of Health) is a genetically homogenous line that was cloned from Dd2 by limiting dilution. To define the EC50 and EC90 values of ABS parasites, Dd2-B2 ring-stage cultures at 0.2% parasitemia and 1% hematocrit were exposed for 72 hours to a range of 10 drug concentrations that were twofold serially diluted in duplicates along with drug-free controls. Parasite survival was assessed by flow cytometry on an iQue flow cytometer (Sartorius) using SYBR Green and MitoTracker Deep Red FM (Life Technologies) as nuclear stain and vital dyes, respectively. After determination of the EC50 and EC90 values for the three compounds with the P. falciparum Dd2-B2 clone, one single-step selection was set up using 2 × 10^5 parasites in each well of a 96-well plate at a starting concentration of 3× EC90. Parasites were cleared from the culture rapidly, and cultures were screened three times weekly by flow cytometry and counted as positive for recrudescence when the overall parasitemia reached 0.3% and the parasites were visible on a blood smear. DNA was extracted from recrudescent lines using a QIAGEN QIAamp Blood Mini Kit, and libraries were prepared with the Illumina DNA Prep kit for whole-genome sequencing on the Illumina MiSeq using a V3 2 × 300–base pair flow cell.
(In general: A flow cytometer gives signals particle by particle.)

The subject of a further assay is P. falciparum Dd2-B2. In words: 72-hour flow cytometry EC50 assay, Dd2-B2 parental line. As to conditions: Plasmodium falciparum, DD2, read-out: EC50 Dd2-B2 parental line. As to the method: as §1
In a further assay the test system is P. falciparum 3D7. In words: Ex vivo 72-hour SYBR Green assay, 3D7 control (Uganda). As to conditions: Ugandan ex vivo assay control; read-out: EC50 lab strain 3D7. As for the experimental part:
(§2) Samples were delivered to the adjacent IDRC laboratory at Tororo District Hospital or transported by car from Masafu Hospital on the day of collection for storage of blood spots on filter paper (for isolation of nucleic acids) and initiation of ex vivo culture of malaria parasites. […] Before assay, 10 mM antimalarial stock compounds were diluted as necessary in DMSO and stored at −20°C. […] Compounds were serially diluted threefold in a 96-well assay plate in complete medium to a final volume of 50 μl, in columns 1 to 10, with concentrations optimized to capture full dose-response curves. Column 11 contained compound-free controls, while column 12 contained uninfected human RBC controls. Parasite culture (150 μl) was added to columns 1 to 11 of the assay plate with a final volume of 200 μl per well, 0.2% parasitemia, and 2% hematocrit. […] Thawed plates were incubated with SYBR Green lysis buffer for 1 hour in the dark as previously reported ([62]). Fluorescence was quantified using a BMG Fluostar Optima plate reader at an excitation of 485 nm and an emission of 530 nm, and data were plotted using GraphPad Prism 7. The data were curve fit with a variable slope function to estimate IC50 values. For each isolate, a Z′ factor to assess assay quality was calculated from positive controls (eight drug-free wells) and negative controls (eight parasite-free, red cell control wells). Z′ values over 0.5 were considered good assays, but each curve was also examined by eye for suitability. Some assays with Z′ below 0.5 may be considered valid depending on factors such as the SE of the curve-fit IC50.

The next assay relates to P. falciparum Dd2. Put plainly: Ex vivo 72-hour SYBR Green assay, Dd2 control (Uganda). Conditions: Ugandan ex vivo assay control; read-out: EC50 lab strain Dd2. As to the method:
as §2

Assay [3] relates to P. falciparum clinical isolates from Tororo and Busia Districts of Uganda. In words: Ex vivo 72-hour SYBR Green assay, Ugandan clinical isolates. As to conditions: 47 Ugandan isolates.
Text: Clinical isolates were from the Tororo District of Uganda, located in the central-eastern part of the county near the Kenya border. Tororo and surrounding areas have high-intensity, year-round malaria transmission. […] Patients reporting use of antimalarial treatment within the previous 30 days or with evidence of an infection with other Plasmodium species were excluded. Informed consent was obtained from patients and/or primary care givers (depending on age); children aged 8 to 17 years provided assent. Two to 5 ml of blood was collected by venipuncture in a heparin tube. Samples were delivered to the adjacent IDRC laboratory at Tororo District Hospital or transported by car from Masafu Hospital on the day of collections for storage of blood spots on filter paper (for isolation of nucleic acids) and initiation of ex vivo culture of malaria parasites. Treatment involved a standard therapeutic regimen for uncomplicated falciparum malaria, which was a 3-day course of the artemisinin-based combination therapy (ACT), artemether-lumefantrine. In Uganda, at the time of sampling, there was widespread resistance to the antifolate drugs due to mutant pfdhfr/pfdhps alleles. […] Chloroquine was prepared at 10 mM in water. Stock solutions were stored at −20°C. Working solutions were freshly prepared from a single aliquot within 4 hours of the susceptibility test and stored at 4°C.
as §2

For the compound `CC(C)c1n[nH]c2c(=O)[nH]c(Cc3ccc(F)cc3F)nc12` [SAL-0010003], in assay [1] (10× EC50, 3D7), the Lag phase came to 0 h, the “Log PRR” value is 3.11 and the “PCT99.9% (hours taken to kill 99.9% of the parasites)” value was determined as 47.1 h. In addition, in assay [1] (10× EC50, 3D7 killing profile), the Slope was −0.0647 ± 0.0047. Moreover, in assay [1] (10× EC50, faster than pyrimethamine, slower than chloroquine), the Killing profile entry is on record as “fast/moderate killing profile”. For the same compound, the 50% effective concentration (EC50) in assay [2] (DD2, read-out: EC50, line selected with SAL-0010003, Well A7) was 2800 nM. Besides, the EC50 in assay [2] (DD2, read-out: EC50, line selected with SAL-0010003, Well E2) is 2510 nM. For the same compound, the EC50 in assay [2] (DD2, read-out: EC50, line selected with SAL-0010003, Well F10) is 1620 nM. Moreover, the “Mean fold change in EC50” value in assay [2] (selected lines vs Dd2-B2 parental line, ±SD) turned out to be 7.6 ± 2.0 fold. Moreover, in assay [2] (vs Dd2-B2), the “EC50 shift, line selected with SAL-0010003, Well A7” value was 9.2 fold; the “EC50 shift, line selected with SAL-0010003, Well E2” value is reported as 8.3 fold; the “EC50 shift, line selected with SAL-0010003, Well F10” value stood at 5.3 fold. Moreover, the EC50 with P. falciparum Dd2-B2 was determined as 304 nM.
Take `CC(C)c1[nH]nc2c(=O)[nH]c(Cc3ccccc3F)nc12` [SAL-0010042]: the EC50 in the assay with P. falciparum 3D7 was 132 nM; in the assay with P. falciparum Dd2, 115 nM; in assay [3] (read-out: EC50 clinical isolates, Gmean (geometric mean)) it was 204 nM; in assay [3] (read-out: EC50 clinical isolates, Median), 197 nM.

For orientation: EC50 means the midpoint of the concentration-response curve.
